Assay results: patent US11008332B2, “Pharmaceutical composition for preventing or treating aging-related diseases containing decursin derivative as active ingredient” (PRG S&TECH INC., priority 2017, dated 2021)
Entries after “also recorded” stand apart in the source; their conditions may differ.

Experiments:
[1] = tested on: WS cells; assay: Immunofluorescence staining of Werner syndrome (WS) patient cells (nuclear morphology, proliferation, H3K9me3); type: cell-based, Human
Description: (§1) Human fibroblast cells from HGPS patients (AG03198, person; AG03199; person), WS patients (AG06300, person; AG03141, person; AG00780, person) and controls (GM 00038, person) were obtained from the Coriell Cell Repositories (Camden, N.J., USA) and were maintained in EMEM, containing 15% FBS, 2 mM glutamine or HEMEM with 26 mM HEPES without antibiotics.
(§2) Cells were seeded on a cover glass and transfected with the indicated vectors.
(§3) After fixing with 100% methanol or 1% paraformaldehyde (PFA) for 1 h at 4° C., cells were incubated with blocking buffer (PBS+anti-human-Ab; 1:400) for 1 h.
(§4) After washing with PBS twice, cells were incubated with anti-Lamin A/C, Progerin or H3K9Me3 in blocking buffer (1:200) overnight and sequentially with anti-goat Ab-FITC or anti-rabbit Ab-rhodamin in blocking buffer (1:500) for 7 h and mounted, and nucleus was stained with DAPI. Thereafter Immunofluorescence signal was detected by fluorescence microscopy (Zeiss and Logos).
(§5) For counting nuclear deformed cell, obtained immunofluorescence images were used. Nuclear membrane showing abnormalities, dependent on Lamin A staining, were counted from randomly selected field. Counted cells were calculated percentage.
To measure the cell proliferation, DAPI stained cells were counted from immunofluorescence images.

[2] = target: hERG ion channel (Homo sapiens, UniProt Q12809); assay: hERG inhibition (in vitro ADME); conditions: in vitro ADME analysis, FIG. 2B
[3] = Liver microsomal stability, mouse; type: in vitro ADME
[4] = tested on: Lmna^wt/G609G mice; assay: Life span and morphology of Lmna^wt/G609G mice; type: in vivo, mouse
[5] = target: CYP2C9 (Homo sapiens, UniProt P11712); assay: CYP inhibition CYP2C9; type: in vitro ADME
Description: (§7) In vitro ADME studies (plasma protein binding, CYP inhibition, microsomal stability, plasma stability and hERG inhibition) were performed by New drug development center though standard protocols.

[6] = tested on: collagen 1A expression in HaCaT cells; assay: Collagen 1A expression in HaCaT cells (Western blot); type: cell-based, human; conditions: 2 or 5 μM, 24 hours, FIG. 5A
Description: (§6) Human keratinocyte HaCaT cells and normal fibroblast 9N (GM 00038, person) and N46 (AG13299, person) were treated with 2 or 5 μM SLC-D011 and incubated for 24 hours and then the amount of collagen 1A expression was confirmed in HaCaT cells and fibroblasts was confirmed.

[7] = Stability in monoolein-based solution on heating and sonication (LC-MS); type: physicochemical; conditions: heating at 80° C. and sonication, FIG. 3B
[8] = target: CYP2C19 (Homo sapiens, UniProt P33261); assay: CYP inhibition CYP2C19; type: in vitro ADME
Description: as §7

[9] = tested on: progerin expression in progerin-transfected 293 cells; assay: Progerin expression analysis in progerin-transfected 293 cells (Western blot); type: cell-based; conditions: 24 hours, FIG. 1D
Description: HEK293 cell line, obtained from ATCC, were maintained in liquid medium (DMEM) containing 10% FBS and 1% antibiotics at 37° C.
Whole-cell lysates were prepared in RIPA.
15 μg of cell extracts were separated by SDS-PAGE and transferred onto a PVDF membrane.
The membrane was incubated for 1 h to overnight at 4° C. with primary antibody, followed by reaction with a secondary antibody at room temperature for 1 h.
Peroxidase activity was detected by chemiluminescence with ECL kit (Intron, Seoul, Korea) as recommended by its manufacturer.

[10] = tested on: Plasma protein; assay: Plasma protein binding, human; type: in vitro ADME
Description: as §7

[11] = Chemical pharmacokinetic (PK) analysis, blood/plasma concentration by LC-MS/MS; type: in vivo; conditions: FIG. 2A
Description: For PK analysis, 5 mg/kg of JH4 in 10% DMSO, 5% Tween […] solution was intravenously injected and 10 mg/kg of JH4 in 10% NMP and 90% PEG400 solution was per orally delivered. At the setting time-points, blood concentration of JH4 was determined by LC-MS/MS analysis and the PK analysis for other chemicals was also tested by the similar protocol.

[12] = Liver microsomal stability, human; type: in vitro ADME
Description: as §7

[13] = Plasma stability, human; type: in vitro ADME
[14] = tested on: HGPS cells; assay: Immunofluorescence staining of HGPS cells (nuclear morphology, progerin, H3K9me3); type: cell-based, Human
Description: as §1, §2, §3, §4, §5

[15] = Plasma stability, rat; type: in vitro ADME
[16] = target: CYP2D6 (Homo sapiens, UniProt P10635); assay: CYP inhibition CYP2D6; type: in vitro ADME
Description: as §7

[17] = Liver microsomal stability, rat; type: in vitro ADME
[18] = tested on: Lmna^G609G/G609G, progeria model mouse; assay: Life span, body weight and morphology of Lmna^G609G/G609G progeria model mice; type: in vivo
Description: The experiments were performed in the Association for Assessment and Accreditation of Laboratory Animal Care certified facility, in compliance with animal policies approved by Pusan National University.
Lmna^G609G/609G mice were generated as timed mating of heterozygous Lmna^+/G609G provided by Carlos López-Otin (Universidad de Oviedo, Asturias, Oviedo, Spain).
SLC-D011, mixed with DMOS and PBS, were intraperitoneally injected in mice (20 mg/kg twice per week from 5-week-old). In addition, SLC-D011 dissolved at a concentration of 10 mg/ml in monoolein-based solution was orally administrated to mice in 5 times a week and control mice were treated in the same conditions by administering monoolein-based solution alone.
Lmna^G609G/609G mice were treated with clear chemical solution throughout life span, starting from 5 weeks of age. Lmna^+/G609G were treated via intraperitoneal, starting from 32 weeks of age.

[19] = tested on: Plasma protein; assay: Plasma protein binding, rat; type: in vitro ADME
Description: as §7

[20] = tested on: collagen 1A expression in normal fibroblast; assay: Collagen 1A expression in normal fibroblasts 9N and N46 (Western blot); type: cell-based, human; conditions: normal fibroblast 9N and N46, 2 or 5 μM, 24 hours, FIG. 5B
Description: as §6

[21] = Lmna^wt/G609G mice, injection started from 43 weeks old, FIG. 2E
[22] = Lmna^G609G/G609G mice, 20 mg/kg i.p injection twice per week from 5 week age, FIG. 2C
[23] = Lmna^G609G/G609G mice, oral gavage 50 mg/kg daily in monoolein solution from 5 weeks old, FIG. 3C

Sequence of CYP2D6 (P10635 whole entry): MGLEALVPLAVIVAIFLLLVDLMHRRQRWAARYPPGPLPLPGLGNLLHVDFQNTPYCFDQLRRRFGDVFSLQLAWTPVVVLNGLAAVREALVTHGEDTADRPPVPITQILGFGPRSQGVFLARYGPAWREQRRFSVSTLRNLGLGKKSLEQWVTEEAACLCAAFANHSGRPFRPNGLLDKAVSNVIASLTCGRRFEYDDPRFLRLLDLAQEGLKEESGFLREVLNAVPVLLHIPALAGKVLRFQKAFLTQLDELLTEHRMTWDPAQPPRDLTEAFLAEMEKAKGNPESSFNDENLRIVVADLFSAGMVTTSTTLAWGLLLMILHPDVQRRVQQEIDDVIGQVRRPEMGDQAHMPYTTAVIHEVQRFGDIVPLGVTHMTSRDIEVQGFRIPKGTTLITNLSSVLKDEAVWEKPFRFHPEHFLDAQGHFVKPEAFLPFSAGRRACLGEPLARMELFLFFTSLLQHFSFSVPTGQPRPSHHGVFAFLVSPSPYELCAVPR
Sequence of hERG ion channel (Q12809 whole entry): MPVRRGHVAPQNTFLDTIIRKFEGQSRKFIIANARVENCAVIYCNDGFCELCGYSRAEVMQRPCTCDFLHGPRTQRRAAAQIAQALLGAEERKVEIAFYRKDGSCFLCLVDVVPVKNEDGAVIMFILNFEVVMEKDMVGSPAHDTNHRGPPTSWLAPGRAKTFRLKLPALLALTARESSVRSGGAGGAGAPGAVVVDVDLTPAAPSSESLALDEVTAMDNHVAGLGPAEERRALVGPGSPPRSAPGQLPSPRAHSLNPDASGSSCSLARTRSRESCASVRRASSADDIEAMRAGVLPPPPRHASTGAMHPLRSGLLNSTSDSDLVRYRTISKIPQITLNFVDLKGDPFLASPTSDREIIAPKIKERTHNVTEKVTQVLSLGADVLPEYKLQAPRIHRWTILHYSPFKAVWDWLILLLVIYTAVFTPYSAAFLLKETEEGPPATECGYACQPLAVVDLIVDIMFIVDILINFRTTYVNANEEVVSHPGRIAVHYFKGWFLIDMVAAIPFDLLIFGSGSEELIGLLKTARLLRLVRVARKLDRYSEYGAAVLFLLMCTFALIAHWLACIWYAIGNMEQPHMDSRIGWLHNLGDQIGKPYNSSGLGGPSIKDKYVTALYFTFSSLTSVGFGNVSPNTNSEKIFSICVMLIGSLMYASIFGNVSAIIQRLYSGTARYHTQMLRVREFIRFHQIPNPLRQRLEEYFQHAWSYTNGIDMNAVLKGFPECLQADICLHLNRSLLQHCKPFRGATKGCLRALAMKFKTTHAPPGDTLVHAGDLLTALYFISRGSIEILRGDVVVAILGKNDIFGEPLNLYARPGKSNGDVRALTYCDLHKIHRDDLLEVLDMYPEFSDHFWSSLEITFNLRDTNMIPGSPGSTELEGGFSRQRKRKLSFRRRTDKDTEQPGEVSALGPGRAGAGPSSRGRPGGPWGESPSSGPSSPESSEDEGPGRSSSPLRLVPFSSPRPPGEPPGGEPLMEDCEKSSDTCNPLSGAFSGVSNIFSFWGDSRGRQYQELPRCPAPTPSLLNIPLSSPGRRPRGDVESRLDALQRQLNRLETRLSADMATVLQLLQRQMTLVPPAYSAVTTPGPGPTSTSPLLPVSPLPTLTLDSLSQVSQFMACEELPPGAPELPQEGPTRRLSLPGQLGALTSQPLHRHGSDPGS
Sequence of CYP2C9 (P11712 whole entry): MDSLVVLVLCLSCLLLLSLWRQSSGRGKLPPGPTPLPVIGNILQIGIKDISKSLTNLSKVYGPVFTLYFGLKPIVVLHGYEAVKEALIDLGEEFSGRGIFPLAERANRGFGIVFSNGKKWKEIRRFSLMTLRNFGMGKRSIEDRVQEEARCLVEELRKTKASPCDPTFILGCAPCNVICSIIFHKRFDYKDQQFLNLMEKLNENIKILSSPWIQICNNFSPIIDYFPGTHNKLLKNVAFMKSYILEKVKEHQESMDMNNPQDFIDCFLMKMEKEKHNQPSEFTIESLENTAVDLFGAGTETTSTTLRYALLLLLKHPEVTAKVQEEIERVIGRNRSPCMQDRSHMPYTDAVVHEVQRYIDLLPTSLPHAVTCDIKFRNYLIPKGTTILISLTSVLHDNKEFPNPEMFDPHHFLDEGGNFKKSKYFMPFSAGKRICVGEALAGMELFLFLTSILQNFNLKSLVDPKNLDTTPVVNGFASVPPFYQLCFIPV
Sequence of CYP2C19 (P33261 whole entry): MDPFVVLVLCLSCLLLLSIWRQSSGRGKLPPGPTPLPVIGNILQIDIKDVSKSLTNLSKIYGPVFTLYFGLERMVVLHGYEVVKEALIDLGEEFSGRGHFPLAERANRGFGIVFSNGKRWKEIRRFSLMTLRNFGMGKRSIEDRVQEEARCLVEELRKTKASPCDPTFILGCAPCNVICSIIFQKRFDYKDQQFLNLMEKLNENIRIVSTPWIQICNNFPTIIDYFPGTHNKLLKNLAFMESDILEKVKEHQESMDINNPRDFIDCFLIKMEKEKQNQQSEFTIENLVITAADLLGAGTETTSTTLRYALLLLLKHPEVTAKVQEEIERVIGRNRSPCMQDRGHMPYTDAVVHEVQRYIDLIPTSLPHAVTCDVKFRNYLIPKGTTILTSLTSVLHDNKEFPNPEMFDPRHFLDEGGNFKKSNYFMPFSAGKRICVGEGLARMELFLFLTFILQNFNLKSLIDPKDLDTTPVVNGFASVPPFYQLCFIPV

Structure (SMILES): CC1(C)Oc2cc3oc(=O)ccc3cc2C[C@@H]1OC/C=C/c1ccccc1 [SLC-D011, (7S)-(+)-8,8-dimethyl-7-(3-phenyl-allyloxy)-7,8-dihydro-6H-pyrano[3,2-g]chromen-2-one]
- nuclear morphology of WS cells ([1]; WS cells incubated 48 hr, FIG. 4F): improved nuclear morphology
- H3K9me3 expression in WS cells ([1]; WS cells incubated 48 hr, FIG. 4G): induced expression of H3K9me3
- cell proliferation of WS cells ([1]; WS patient cells, FIG. 4F): improved nuclear morphology and cell proliferation
- hERG ion channel inhibition [2]: severe hERG inhibition was not observed
- Liver microsomal stability (% remaining during 30 min) Mouse (%) [3]: 59.7%
- lifespan extended from 45 to ([4]; Lamn^wt/G609G model): 64 weeks
- average life span [4, 21]: 65 weeks
- maximum (max) life span [4, 21]: 66 weeks
- morphology such as hair condition and body size ([4]; Lmna^wt/G609G mouse, FIG. 2F): greatly improved
- CYP inhibition CYP2C9 [5]: 78.4
- collagen expression in keratinocytes [6]: increasing collagen expression
- stability in solution on heating and ultrasonic treatment [7]: stable without being decomposed even by heating and ultrasonic treatment
- CYP inhibition CYP2C19 [8]: 28.8
- progerin expression [9]: inhibiting progerin expression; also recorded: obviously suppresses progerin expression
- Plasma protein binding Human (% Bound) [10]: 99.9 % Bound
- bioavailability ([11]; blood, oral, PK analysis, read-out: bioavailability (B.A.)): 66%
- PK profile ([11]; in vivo PK analysis): proper PK profile
- Liver microsomal stability (% remaining during 30 min) Human (%) [12]: 21.5%
- Plasma stability (% remaining) Human 30 min ([13]; 30 min): >100 % remaining
- Plasma stability (% remaining) Human 120 min ([13]; 120 min): >100 % remaining
- nuclear abnormality of HGPS cells ([14]; HGPS cells incubated 48 hr, FIG. 1E): improved nuclear abnormality of HGPS cells
- progerin expression in HGPS cells ([14]; HGPS cells incubated 48 hr, progerin staining, FIG. 1E): reduces progerin expression
- H3K9me3 expression in HGPS cells ([14]; immunostaining, FIG. 1F): induced H3K9me3 expression
- Plasma stability (% remaining) Rat 30 min ([15]; 30 min): 83.6 % remaining
- Plasma stability (% remaining) Rat 120 min ([15]; 120 min): 75.1 % remaining
- CYP inhibition CYP2D6 [16]: 91.7
- Liver microsomal stability (% remaining during 30 min) Rat (%) [17]: 17.4%
- life-span extended to ([18]; Lamn^G609G/G609G mice, i.p injection): 20 weeks
- body size and gross morphology ([18]; Lamn^G609G/G609G mice, i.p injection, FIG. 2D): body size increase and gross morphology were also improved
- lifespan extension ([18]; Lamn^G609G/G609G mice, oral administration in olein-based solution): 4.5 weeks
- average (ave) life span [18, 22]: 19.5 weeks
- maximum (max) life span [18, 22]: 21 weeks
- body weight increase compared to vehicle group ([18]; Lmna^G609G/G609G mice, oral administration, FIG. 3D): about 35%
- body size at 8 weeks old ([18]; Lmna^G609G/G609G mice, oral administration, FIG. 3E): apparently larger than that of vehicle-mouse
- average life span [18, 23]: 19.3 weeks
- maximum life span [18, 23]: 19.5 weeks
- Plasma protein binding Rat (% Bound) [19]: 99.8 % Bound
- collagen expression in fibroblasts [20]: increasing collagen expression
